Our source for the IC50 values is US9981975B2, “Pyrrolotriazine compounds as tam inhibitors” (Incyte Corporation, priority 2016, dated 2018).

What all share (assay type): biochemical
One experiment deals with phosphor-Axl (Homo sapiens (Human), UniProt P30530). The experiment in a line: TAM Enzymatic Assay (HTRF), Axl. The following applies: recombinant autophosphorylated Axl, 60 min, room temperature.
The target of another experiment is c-Mer (Homo sapiens (Human), UniProt Q12866). The experiment in a line: TAM Enzymatic Assay (HTRF), Mer. The following applies: 60 min, room temperature. A digest of the protocol:
(§1)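 HTRF kinase assay in 50 mM HEPES pH 7.5, 10 mM MgCl2, 1 mM EGTA, 0.01% NP-40, 2 mM DTT; compound in DMSO pre-dispensed, enzyme added, reaction started with substrate, 60 min at room temperature in the dark.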

In the next experiment the target is Tyro3 (Homo sapiens (Human), UniProt Q06418). Briefly: TAM Enzymatic Assay (HTRF), Tyro3. The settings on record: Tyro3, 60 min, room temperature. The procedure, abridged:
as §1

Chain of Tyro3 (Q06418 41-890): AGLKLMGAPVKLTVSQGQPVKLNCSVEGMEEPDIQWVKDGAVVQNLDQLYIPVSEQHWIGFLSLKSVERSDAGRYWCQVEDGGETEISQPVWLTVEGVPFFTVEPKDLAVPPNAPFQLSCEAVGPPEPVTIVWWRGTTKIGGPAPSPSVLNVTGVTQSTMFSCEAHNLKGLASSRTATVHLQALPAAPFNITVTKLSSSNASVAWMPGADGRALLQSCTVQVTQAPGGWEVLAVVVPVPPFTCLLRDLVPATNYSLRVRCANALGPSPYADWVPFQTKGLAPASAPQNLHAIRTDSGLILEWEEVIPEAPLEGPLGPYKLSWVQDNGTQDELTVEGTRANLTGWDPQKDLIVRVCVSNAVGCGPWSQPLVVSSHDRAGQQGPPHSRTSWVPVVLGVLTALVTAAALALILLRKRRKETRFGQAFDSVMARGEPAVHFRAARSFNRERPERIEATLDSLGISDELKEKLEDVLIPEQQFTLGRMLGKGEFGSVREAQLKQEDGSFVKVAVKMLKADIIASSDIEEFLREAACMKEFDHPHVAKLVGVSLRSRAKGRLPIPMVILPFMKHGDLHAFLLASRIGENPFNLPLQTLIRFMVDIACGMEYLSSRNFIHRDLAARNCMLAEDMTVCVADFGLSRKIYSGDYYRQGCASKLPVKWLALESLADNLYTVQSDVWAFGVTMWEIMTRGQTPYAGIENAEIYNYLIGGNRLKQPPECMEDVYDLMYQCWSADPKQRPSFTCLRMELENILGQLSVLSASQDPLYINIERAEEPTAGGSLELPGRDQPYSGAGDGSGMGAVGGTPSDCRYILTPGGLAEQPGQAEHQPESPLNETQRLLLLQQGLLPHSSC
Chain of c-Mer (Q12866 21-999): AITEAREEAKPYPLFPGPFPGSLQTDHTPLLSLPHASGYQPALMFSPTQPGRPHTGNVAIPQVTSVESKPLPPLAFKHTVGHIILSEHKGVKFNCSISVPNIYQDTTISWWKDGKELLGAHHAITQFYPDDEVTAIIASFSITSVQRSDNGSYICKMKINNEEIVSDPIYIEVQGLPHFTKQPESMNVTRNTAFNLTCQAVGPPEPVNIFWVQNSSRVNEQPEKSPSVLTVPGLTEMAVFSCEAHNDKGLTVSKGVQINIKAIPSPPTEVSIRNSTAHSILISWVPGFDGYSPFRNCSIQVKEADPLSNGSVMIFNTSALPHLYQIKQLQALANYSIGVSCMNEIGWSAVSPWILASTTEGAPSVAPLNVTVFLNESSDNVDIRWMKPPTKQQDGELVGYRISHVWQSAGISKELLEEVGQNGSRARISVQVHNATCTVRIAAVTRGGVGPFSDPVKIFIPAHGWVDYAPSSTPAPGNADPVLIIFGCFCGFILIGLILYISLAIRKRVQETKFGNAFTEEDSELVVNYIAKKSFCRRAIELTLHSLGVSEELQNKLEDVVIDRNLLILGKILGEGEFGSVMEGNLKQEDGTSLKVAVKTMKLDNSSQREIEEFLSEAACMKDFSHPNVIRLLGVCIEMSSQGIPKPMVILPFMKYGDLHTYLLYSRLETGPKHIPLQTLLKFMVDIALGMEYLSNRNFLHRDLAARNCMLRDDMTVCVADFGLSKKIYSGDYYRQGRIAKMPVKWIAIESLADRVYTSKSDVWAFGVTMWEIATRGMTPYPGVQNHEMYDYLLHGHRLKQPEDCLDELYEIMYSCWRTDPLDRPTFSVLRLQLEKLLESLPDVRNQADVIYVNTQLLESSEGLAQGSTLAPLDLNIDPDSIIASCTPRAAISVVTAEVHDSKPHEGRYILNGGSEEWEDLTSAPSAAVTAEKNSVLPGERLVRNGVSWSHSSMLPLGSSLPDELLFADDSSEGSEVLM
Chain of phosphor-Axl (P30530 26-894): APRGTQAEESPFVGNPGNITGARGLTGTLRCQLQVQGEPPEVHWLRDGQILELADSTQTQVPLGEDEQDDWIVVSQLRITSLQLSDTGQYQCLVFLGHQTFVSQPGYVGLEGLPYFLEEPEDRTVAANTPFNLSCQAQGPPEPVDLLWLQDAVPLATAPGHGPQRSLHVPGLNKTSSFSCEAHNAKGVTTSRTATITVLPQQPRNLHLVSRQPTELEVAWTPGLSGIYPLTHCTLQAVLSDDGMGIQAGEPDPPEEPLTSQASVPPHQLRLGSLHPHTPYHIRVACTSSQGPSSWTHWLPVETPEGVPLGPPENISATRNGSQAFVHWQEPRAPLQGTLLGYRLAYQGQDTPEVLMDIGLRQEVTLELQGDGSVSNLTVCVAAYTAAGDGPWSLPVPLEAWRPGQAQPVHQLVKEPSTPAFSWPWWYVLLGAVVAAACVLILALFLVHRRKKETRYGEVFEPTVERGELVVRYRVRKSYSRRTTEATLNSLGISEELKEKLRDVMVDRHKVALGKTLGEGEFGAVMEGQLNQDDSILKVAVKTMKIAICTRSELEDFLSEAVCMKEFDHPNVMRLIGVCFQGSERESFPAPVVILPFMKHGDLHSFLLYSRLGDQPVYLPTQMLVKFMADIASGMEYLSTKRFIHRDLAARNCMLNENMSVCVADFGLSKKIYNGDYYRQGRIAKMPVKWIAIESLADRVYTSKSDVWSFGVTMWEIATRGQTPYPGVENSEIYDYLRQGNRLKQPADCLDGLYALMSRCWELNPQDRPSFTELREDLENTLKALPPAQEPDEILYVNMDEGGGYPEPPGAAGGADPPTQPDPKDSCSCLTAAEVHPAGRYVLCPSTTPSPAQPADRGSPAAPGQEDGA

As to `Cc1c(-c2cccnc2)c(=O)c(C(=O)Nc2ccc(-c3cc(C4CCN(C(=O)C(C)C)CC4)n4ncnc(N)c34)cc2)cn1C1CC1` [Example 147, N-(4-(4-Amino-7-(1-isobutyrylpiperidin-4-yl)pyrrolo[1,2-f][1,2,4]triazin-5-yl)phenyl)-1-cyclopropyl-6-methyl-4-oxo-5-(pyridin-3-yl)-1,4-dihydropyridine-3-carboxamide], the values for the IC50 on phosphor-Axl, against c-Mer and against Tyro3 were at most 5 nM, at most 5 nM and above 100 nM, respectively.

On to `CCn1cc(C(=O)Nc2ccc(-c3cc(C4CCN(C(=O)N5CCOCC5)CC4)n4ncnc(N)c34)cc2)c(=O)n(-c2ccc(F)cc2)c1=O` [Example 68, N-(4-(4-Amino-7-(1-(morpholine-4-carbonyl)piperidin-4-yl)pyrrolo[1,2-f][1,2,4]triazin-5-yl)phenyl)-1-ethyl-3-(4-fluorophenyl)-2,4-dioxo-1,2,3,4-tetrahydropyrimidine-5-carboxamide], for which the IC50 at phosphor-Axl was at most 5 nM; against c-Mer, at most 5 nM; on Tyro3, above 100 nM.

Turning to `Cc1c(CC#N)cc(C(=O)Nc2ccc(-c3cc(C4CCN(C(=O)C(C)C)CC4)n4ncnc(N)c34)cc2)c(=O)n1-c1cncc(F)c1` [Example 102, N-(4-(4-Amino-7-(1-isobutyrylpiperidin-4-yl)pyrrolo[2,1-f][1,2,4]triazin-5-yl)phenyl)-5-(cyanomethyl)-5′-fluoro-6-methyl-2-oxo-2H-[1,3′-bipyridine]-3-carboxamide], the IC50 on phosphor-Axl was at most 5 nM; against c-Mer it was at most 5 nM; on Tyro3, 10 to 100 nM.

Take `Cc1cc(C(=O)Nc2ccc(-c3cc(C4CCN(C(=O)C(C)C)CC4)n4ncnc(N)c34)cc2)c(=O)n(-c2ccccc2)c1-c1cccnc1` [Example 106, N-(4-(4-Amino-7-(1-isobutyrylpiperidin-4-yl)pyrrolo[2,1-f][1,2,4]triazin-5-yl)phenyl)-3-methyl-6-oxo-1-phenyl-1,6-dihydro-[2,3′-bipyridine]-5-carboxamide]: the IC50 is at most 5 nM on phosphor-Axl, at most 5 nM at c-Mer and above 100 nM against Tyro3.

Consider `N#C[C@H]1CC[C@@H](c2cc(-c3ccc(NC(=O)c4cccn(-c5ccccc5)c4=O)cc3)c3c(N)ncnn32)CC1` [Example 28, N-{4-[4-Amino-7-(cis-4-cyanocyclohexyl)pyrrolo[2,1-f][1,2,4]triazin-5-yl]phenyl}-2-oxo-1-phenyl-1,2-dihydropyridine-3-carboxamide], for which the IC50 on phosphor-Axl is at most 5 nM; against c-Mer, at most 5 nM; at Tyro3, above 100 nM.

As to `Cc1c(-c2cncc(F)c2)c(=O)c(C(=O)Nc2ccc(-c3cc(C4CCN(C(=O)C(C)C)CC4)n4ncnc(N)c34)cc2)cn1C(C)C` [Example 98, N-(4-(4-Amino-7-(1-isobutyrylpiperidin-4-yl)pyrrolo[2,1-f][1,2,4]triazin-5-yl)phenyl)-5′-fluoro-1-isopropyl-2-methyl-4-oxo-1,4-dihydro-[3,3′-bipyridine]-5-carboxamide], the half-inhibitory concentration (IC50) on phosphor-Axl was at most 5 nM; on c-Mer it was at most 5 nM; on Tyro3, 10 to 100 nM.

In the case of `CC(C)C(=O)N1CCC(c2cc(-c3ccc(NC(=O)c4cnc(-c5cccnc5)n(-c5ccccc5)c4=O)cc3)c3c(N)ncnn23)CC1` [Example 116, N-{4-[4-Amino-7-(1-isobutyrylpiperidin-4-yl)pyrrolo[2,1-f][1,2,4]triazin-5-yl]phenyl}-6-oxo-1-phenyl-2-pyridin-3-yl-1,6-dihydropyrimidine-5-carboxamide], the values for the IC50 on phosphor-Axl, against c-Mer and against Tyro3 were at most 5 nM, at most 5 nM and 10 to 100 nM, respectively.

`CCc1cc(-c2ccc(NC(=O)c3cccn(Cc4ccccc4)c3=O)cc2)c2c(N)ncnn12` [Example 5, N-[4-(4-Amino-7-ethylpyrrolo[2,1-f][1,2,4]triazin-5-yl)phenyl]-1-benzyl-2-oxo-1,2-dihydropyridine-3-carboxamide]: the IC50 at phosphor-Axl, on c-Mer and at Tyro3 was above 100 nM each time.

With `Cc1cc(C(=O)Nc2ccc(-c3cc(C4CCN(C(=O)C(C)C)CC4)n4ncnc(N)c34)cc2)c(=O)n(-c2cccnc2)c1C` [Example 132, N-(4-(4-Amino-7-(1-isobutyrylpiperidin-4-yl)pyrrolo[2,1-f][1,2,4]triazin-5-yl)phenyl)-5,6-dimethyl-2-oxo-2H-[1,3′-bipyridine]-3-carboxamide], the IC50 at phosphor-Axl was at most 5 nM; against c-Mer it was at most 5 nM; against Tyro3 it was above 100 nM.

Regarding `Nc1ncnn2c(C3CCNCC3)cc(-c3ccc(NC(=O)c4cccn(-c5ccc(F)cc5)c4=O)cc3)c12` [Example 33, N-[4-(4-Amino-7-piperidin-4-ylpyrrolo[2,1-f][1,2,4]triazin-5-yl)phenyl]-1-(4-fluorophenyl)-2-oxo-1,2-dihydropyridine-3-carboxamide], the IC50 on phosphor-Axl was at most 5 nM; against c-Mer, at most 5 nM; against Tyro3, 10 to 100 nM.

Regarding `CC(C)C(=O)N1CCC(c2cc(-c3ccc(NC(=O)c4cc5c(n(-c6ccccc6)c4=O)CCCC5=O)cc3)c3c(N)ncnn23)CC1` [Example 74, N-(4-(4-Amino-7-(1-isobutyrylpiperidin-4-yl)pyrrolo[1,2-f][1,2,4]triazin-5-yl)phenyl)-2,5-dioxo-1-phenyl-1,2,5,6,7,8-hexahydroquinoline-3-carboxamide], the figures for the IC50 on phosphor-Axl, against c-Mer and against Tyro3 were at most 5 nM, at most 5 nM and 10 to 100 nM, respectively.
